This assay can be described thus: Pharmacological activity, test not specified. The note with it: compared with the racemic dihydrochloride (starting material of Example 2) and the levorotatory salt.

As for `CC(C)NC(C)Cc1ccc(O)cn1.Cl.Cl` (stereo not shown) [rechtsdrehende Antipode, 2-(2-Isopropylaminopropyl)-5-pyridinol-dihydrochlorid], the pharmakologisch aktiv entry is “weniger aktiv”.

These data come from EP0019739A1, “2-Aminoalkyl-5-pyridinoles, process for their preparation and pharmaceutical preparations containing them” (CIBA-GEIGY AG, priority 1979, dated 1980).
